Assay: Human HepG2 cell viability assay in 384 well format
Assay type: toxicity, cell-based
Design: dose 125 nL, time 70.5 hour; cytotoxicity at 70.5 h: concentration not given beside the values
Details: HepG2 cells, read-out: Inhibition

Compound	cytotoxicity at 70.5 h [%]
Nc1nc(N)c2c(n1)OC1(COCCN(Cc3nccs3)C1)C2 (configuration not stated)	-10.4
CCc1ccccc1C(=O)N1CCCC1CC(=O)c1cnn(C)c1 (configuration not stated)	-13.4
Cc1nn(Cc2ccc(C(=O)NCCCN3CCOCC3)o2)c(C)c1Cl	24.8
C=C(C)COc1ccccc1CN1CCCC(C(=O)NCCCO)C1 (configuration not stated)	-8.32
O=C(Cc1cnccn1)N1CCC(c2nccn2CC2CC2)CC1	31.6
c1ccc(O[C@H]2COCCN(CC3CC3)C2)cc1	-1.48
N#CC1(C(=O)N2C[C@H]3CC[C@@H]2CN(Cc2cscn2)C3)CCOCC1	15.7
CC(C)(C)c1cnc(CNCC2CCCN2c2cccnn2)o1 (configuration not stated)	18.8
CC(C)(C)[S+]([O-])CCNC(=O)c1csc(NC2CC2)n1 (configuration not stated)	12.6
CC(C)c1cc(NC(=O)CN2CCNC(=O)C2)on1	-5.09
COCCNC(=O)C[C@@H]1COC[C@H]2CN(CC3CCOCC3)C[C@@H]12	1.35
NC(=O)CN1CCCC(C(=O)N2CCC(O)(Cc3ccccc3)CC2)C1 (configuration not stated)	-9.61
COc1cccc(C(=O)N(C)Cc2ncc(C)c(OC)c2C)c1OC	-0.629
CN(C)C(=O)[C@]12CCCN(CC3CC3)C[C@H]1CN(c1ccccn1)C2	-8.29
COc1cccc(CCC2CCCN(C(=O)c3ccc(OC)o3)C2)c1 (configuration not stated)	-3.25
O=C(c1ccc2ccccc2c1)C1CCCN(C(=O)Cn2cnnn2)C1 (configuration not stated)	-3.65
Cc1nc(N2CCCC2)nc2c1CCN(C(=O)N(C)C)CC2	-16.7
CC(CNC(=O)OC(C)(C)C)N(C)C(=O)COc1ccccc1C#N (configuration not stated)	-12.1
Cc1nnc(SCCC(=O)N(C)Cc2ccc(F)cc2Cl)[nH]1	-4.47
CC(CNc1cncc(-n2cccn2)n1)N(C)c1ccccc1 (configuration not stated)	1.39
CCN(Cc1ccccc1)Cc1nc2c(cnn2C)c(=O)[nH]1	17
O=C(Cn1ccc2sccc2c1=O)NCc1ccccc1F	-5.13
O=S1(=O)NC[C@H]2CCN(Cc3ccccc3)CC[C@H]21	-2.52

Compound	cytotoxicity at 70.5 h [%]
CS(=O)(=O)NCCNC(=O)Cc1ccc(Br)s1	-3.17
O=C(O)CCCC(=O)NCC1(O)CCN(c2ccnc3cccnc23)C1 (configuration not stated)	1.69
CN(CCC(=O)N1CCCC(Cc2cccnc2)C1)Cc1cccnc1 (configuration not stated)	-6.27
CC(=O)NCC(=O)N1CCN(Cc2ccncc2)c2ncccc2C1	16.8
COc1ccc(CN2CCC3(CC2)C(C(=O)O)CC(=O)N3C)cc1Cl (configuration not stated)	-3.23
CNC(=O)c1cccc(NC(=O)Cn2nc(-c3cccs3)oc2=O)c1	20.9
COc1ccc(CC2CN(C(=O)c3coc(C)n3)CCO2)cc1 (configuration not stated)	-9.96
COc1ccccc1OCCCN1CCNC1=O	-8.47
CCOc1ncccc1C(=O)N1CCC(Nc2ccc(C)nn2)CC1	-2.98
CCN1CCC(CC(=O)N2CCn3cccc3C2c2cccnc2)CC1 (configuration not stated)	28.5
CC(C)C(O)C(=O)N1CCC2(CC1)c1nc[nH]c1CCN2S(C)(=O)=O (configuration not stated)	-6.39
CN(Cc1nc(N)nc(N(C)C)n1)Cc1cccc2ccccc12	-10.6
CC(C)c1ncncc1C(=O)NCCN1CCCCC1C (configuration not stated)	-1.51
Cc1cccc(CN2C[C@@H]3CN(C4CCOCC4)C[C@@H]3C2=O)c1	-4.96
CS(=O)(=O)CCSc1n[nH]c(-c2ccc3c(c2)CCC3)n1	3.91
O=C(CCN1CCCCO1)NCCSc1cnn[nH]1	-3.27
Cc1ccc(-c2[nH]c3ccccc3c2C(=O)O)c(C)c1	-4.63
Nc1nnc(C2CC(=O)N(c3ccccc3)C2)s1 (configuration not stated)	-16.4
CCCc1cc(CNc2cc(CCC)nc3ccnn23)on1	13.7
CN1CC(C(=O)N2CCN(c3cccc(Cl)c3)C(=O)C2)NC1=O (configuration not stated)	-7.63
CCn1cncc1C1CC(=O)Nc2c1c(C)nn2-c1ccc(C)cc1 (configuration not stated)	1.51
CN(C)C[C@@H]1C[C@@H]2CN(c3ncc(F)cn3)CC[C@@H]2N1C	-3.26
CCNC(=O)c1ccc(NC(=O)N(C)Cc2cc(C)on2)cc1	-4.32

Compound	cytotoxicity at 70.5 h [%]
CCC(=O)N1CCCC(c2ncc3c(n2)CCN(C)C3)C1 (configuration not stated)	-8.89
Cc1ccc(C(=O)N(C)Cc2cc(Br)cs2)cn1	-8.7
COc1cccc2ccn(CC(=O)NCCC(C)C)c12	11
CCn1ncc2c(C(F)F)cc(-c3ccn(C)n3)nc21	-7.69
O=S(=O)(CCCS(=O)(=O)c1ccc2c(c1)OCCCO2)c1ccccc1	-7.8
Cc1cnn(CC2CCCN2C(=O)c2ccccc2-n2cnnn2)c1 (configuration not stated)	-4.97
CCOc1ncccc1C(=O)N1CCCC1c1c(C)nn(C)c1Cl (configuration not stated)	11.9
O=C(c1cn2cc(Cl)cnc2n1)N1CCOCC(O)(CN2CCCC2)C1 (configuration not stated)	-1.97
Cc1nc(CN(C)C2CCCN(c3cccnn3)C2)nc2ccccc12 (configuration not stated)	1.21
CC(C)c1cnc(CN(C)C2CCN(CCc3cnn(C)c3)C2)o1 (configuration not stated)	-5.18
COc1cc(NC(=O)NCc2nccn2C)ccc1Br	-4.24
Cc1cnn(CC2CCN(CC(O)COc3ccccc3)CC2)c1 (configuration not stated)	4.78
COCCc1noc(C2CCN(C(=O)Nc3cccs3)CC2)n1	-4.24
CCc1nnc2n1CCN(C(=O)c1ccc3c(c1)nnn3C)C2	-0.825
CC1CCCN(C(=O)c2cn(-c3ccc(C(F)(F)F)cn3)nn2)C1 (configuration not stated)	12.2
CC(NCc1ccccc1Cl)c1ccc2[nH]c(=O)[nH]c2c1 (configuration not stated)	7.48
O=C(c1nnn(-c2ccccc2)n1)N(CCO)CCO	-5.32
CCc1nnc2n1CCN(C(=O)c1csc(-c3cnn(C)c3)n1)C2	-6.07
Cc1cc(CN2CCN(CC(O)c3ccc(Cl)cc3)CC2)no1 (configuration not stated)	-11.9
Cc1cccc(CN2CCN(c3ncnc4[nH]ccc34)CC2CCO)n1 (configuration not stated)	-3.92
CCn1ccnc1CN1CCCC(CO)(Cc2cccc(OC)c2)C1 (configuration not stated)	-14.1
Cc1cccc(CO[C@H]2CO[C@@]3(CCN(S(=O)(=O)N(C)C)C3)C2)n1	15.2
CC(=O)NCc1noc2c1CN(Cc1cnn(C)c1)CC2	2.69

Compound	cytotoxicity at 70.5 h [%]
CCOCC1CN(C(=O)c2ccncn2)Cc2cnn(CC)c21 (configuration not stated)	-11.7
Cn1cnc2c(-c3cccnc3)nc(C3CCNCC3)cc21	15.6
O=C(Cc1n[nH]c(-c2cncc(Br)c2)n1)NCc1ccccn1	-8.81
Cc1c[nH]nc1C1CN(c2cnccn2)CCO1 (configuration not stated)	-4.52
c1cnn(CC2CN(CCc3ccncc3)CCO2)c1 (configuration not stated)	-4.36
CCC(C)Oc1cc(C(=O)Nc2nc(C)ns2)ccn1 (configuration not stated)	-0.392
CCCC(=O)N1CCCCC1c1nccc(C)n1 (configuration not stated)	8.32
CC(C)CN1CC2(CCN(C(=O)C3CNC(=O)N3)CC2)CC1=O (configuration not stated)	-9.7
CC(C)(C)c1coc([C@@H]2COCCN2Cc2csnn2)n1	-1.66
CC(C)N(C)S(=O)(=O)c1ccc2c(c1)CCN(C(=O)c1ccccn1)C2	22.8
O=c1cc(Cn2cncn2)nc2n1CCCN(Cc1ccoc1)C2	-0.379
Cc1cccnc1CNCC1(O)CCCN(CC2CCCCC2)C1=O (configuration not stated)	-7.77
O=C(N1CCCCC1)N1CCCC1c1nnc2n1CCNC2 (configuration not stated)	17.6
CCC(=O)N1CCC(c2nc(N3CCCC3)ncc2S(C)(=O)=O)CC1	17.6
Cc1nc[nH]c1-c1nccn1CCN1CCCC1=O	24.3
O=C(NCCc1ccccc1)N1C[C@H]2C[C@H](C(=O)N3CCCC3)[C@@H](C1)O2	0.399
c1ccc(O[C@@H]2CO[C@@]3(CCCN(CC4CCOCC4)C3)C2)nc1	-8.71
CC(NC(=O)c1ccnc(C2CC2)n1)C1(N2CCOCC2)CCCC1 (configuration not stated)	-4.36
Cc1nn(CC(=O)N2CCN(Cc3cn(C)nc3C)CC2)cc1Br	25.1
CC(=O)N1CCCC(c2nc(N(C)C)ncc2-c2ccccc2)C1 (configuration not stated)	3.58
Cc1ccc(NC(=O)N(C)C)c(C(=O)OCC(=O)NC(C)C(C)C)c1 (configuration not stated)	26.9
CCCc1cc(=O)[nH]c2nnc(SCC(=O)NCc3ccc(C)cc3)n12	-6.16
CCCN1CCCN(C(=O)c2ccc(Oc3cccnc3)cc2)CC1	-8.42

Compound	cytotoxicity at 70.5 h [%]
CC(C)OC(=O)CN1N=C(C(=O)N2CCCC2)S(=O)(=O)c2ccccc21	1.63
Cc1cc(S(=O)(=O)N2CCC(N3CCC(O)C3)CC2)c(Cl)cc1Cl (configuration not stated)	-4.51
Cc1ccc(OC2CCN(C(=O)Cc3c(C)[nH]c(=O)[nH]c3=O)CC2)cc1	-10.2
Fc1ccc(OCc2nnc([C@H]3CCN(Cc4cccnc4)C3)o2)cc1	-6.19
COc1ccc(NC(=O)c2ccoc2C)c(N2CCN(C(C)=O)CC2)n1	-14.1
CN(CC1CCOCC1)C(C(=O)O)c1cccc(F)c1F (configuration not stated)	0.34
Cc1cc(Br)ccc1NCC(=O)Nc1cc(C(C)(C)C)no1	-4.88
O=C(O)[C@]12CCCN(Cc3cccnc3)[C@@H]1CCN(c1cnccn1)C2	2.83
CC(C)C(=O)NCc1cc(Br)ccc1F	-9.54
CN1C[C@@H]2CC[C@H](CC1=O)N2C(=O)c1ccc(-c2ccccc2)[nH]c1=O	-8.24
NS(=O)(=O)c1ccc(C(=O)N2CCCC2c2ccccc2)o1 (configuration not stated)	-3.63
CCc1cnc(CN(C(C)=O)C2CCN(CCN3CCCCC3)C2)o1 (configuration not stated)	-3.61
Cc1cccc(CN2C[C@@H]3CN(C(=O)c4cnccn4)C[C@@H]3C2=O)n1	-0.986
CCn1cc(NC(=O)c2cccc(OCC(F)(F)F)n2)cn1	-7.52
CS(=O)(=O)N1CCN(CC(O)COc2ccc(Cl)cc2)CC1 (configuration not stated)	0.0303
Cc1ccc(OC2(C(=O)NC(C)Cc3ccsc3)CCNCC2)cc1 (configuration not stated)	7.16
c1cnn(CC2CCN(c3nc(C4CC4)nc4c3CCNCC4)CC2)c1	-0.96
CCn1ncc2c1C(COC)CN(c1ncc(F)cn1)C2 (configuration not stated)	-9.93
CN1CCC(c2cccc(-c3cccc(C(=O)O)c3)n2)CC1	-8.16
N#CC1(NC(=O)c2c(F)ccc(OC(F)F)c2F)CCOCC1	-9.56

Source: ChEMBL document CHEMBL3507680, “University of Dundee, Gates Library screen for HepG2 cell viability”
